Source: ChEMBL document CHEMBL5316339, “Discovery of a Series of Substituted 1H-((1,2,3-Triazol-4-yl)methoxy)pyrimidines as Brain Penetrants and Potent GluN2B-Selective Negative Allosteric Modulators” (J Med Chem, 2023)
Converted amounts (≈) assume the structure as drawn.

Legend:
Brain [1] = experiment: Ex vivo receptor occupancy at GluN2B receptor in Sprague-Dawley rat brain at 10 mg/kg, po measured after 0.5 hrs by 3 [3H] 1-(azetidin- 1-yl-2[6-(4-fluoro-3-methyl-pheny)pyrrolo[3,2-b]pyridin-1-yl]ethanon based autoradiography relative to control; format: functional
[2] = Drug concentration in Sprague-Dawley rat brain assessed as free fraction; format: ADME, tissue-based
[3] = Drug concentration in Sprague-Dawley rat plasma at 10 mg/kg, po measured after 2 hrs; format: ADME, organism-based
MDR1 (P-gp) = experiment: Efflux ratio of apparent permeability from basolateral to apical side over apical to basolateral side in MDCK-MDR1 cells at 5 uM incubated for 60 mins by LC-MS/MS analysis; format: ADME, cell-based, Canis lupus familiaris; conditions: dog
[4] = Unbound brain to plasma concentration ratio in Sprague-Dawley rat at 10 mg/kg, po measured after 0.25 hrs; format: ADME, organism-based; conditions: brain and plasma, read-out: K(p,uu,brain)
[5] = Oral bioavailability in Sprague-Dawley rat at 5 mg/kg measured for 24 hrs by LC-MS/MS analysis; format: ADME, organism-based; conditions: in vivo
[6] = biological target: Glutamate receptor ionotropic, NMDA 2D (Homo sapiens, UniProt O15399+Q05586); experiment: Inhibition of human GluN2D receptor by FLIPR assay
[7] = Cmax in Sprague-Dawley rat at 5 mg/kg, po measured for 24 hrs by LC-MS/MS analysis; format: ADME, organism-based; set-up: time 24 hrs, dose 5 mg/kg, route po; conditions: in vivo
[8] = Unbound brain to plasma concentration ratio in Sprague-Dawley rat at 10 mg/kg, po measured after 2 hrs; format: ADME, organism-based; conditions: brain and plasma, read-out: K(p,uu,brain)
Cytochrome P450 2D6 = Cytochrome P450 2D6 (Homo sapiens, UniProt P10635); experiment: Inhibition of CYP2D6 in human liver microsomes incubated for 10 mins by LC-MS/MS analysis; format: ADME, Microsome
[9] = Drug concentration in Sprague-Dawley rat brain at 10 mg/kg, po measured after 0.5 hrs; format: ADME, organism-based; conditions: read-out: Ct
[10] = biological target: Voltage-gated inwardly rectifying potassium channel KCNH2 (Homo sapiens, UniProt Q12809); experiment: Displacement of [3H]dofetilide from human ERG expressed in HEK293 cells; format: toxicity, cell-based
Cytochrome P450 1A2 = biological target: T1, Cytochrome P450 1A2 (Homo sapiens, UniProt P05177); experiment: Inhibition of CYP1A2 in human liver microsomes incubated for 10 mins by LC-MS/MS analysis; format: ADME, Microsome
T1 sequence (P05177 whole entry): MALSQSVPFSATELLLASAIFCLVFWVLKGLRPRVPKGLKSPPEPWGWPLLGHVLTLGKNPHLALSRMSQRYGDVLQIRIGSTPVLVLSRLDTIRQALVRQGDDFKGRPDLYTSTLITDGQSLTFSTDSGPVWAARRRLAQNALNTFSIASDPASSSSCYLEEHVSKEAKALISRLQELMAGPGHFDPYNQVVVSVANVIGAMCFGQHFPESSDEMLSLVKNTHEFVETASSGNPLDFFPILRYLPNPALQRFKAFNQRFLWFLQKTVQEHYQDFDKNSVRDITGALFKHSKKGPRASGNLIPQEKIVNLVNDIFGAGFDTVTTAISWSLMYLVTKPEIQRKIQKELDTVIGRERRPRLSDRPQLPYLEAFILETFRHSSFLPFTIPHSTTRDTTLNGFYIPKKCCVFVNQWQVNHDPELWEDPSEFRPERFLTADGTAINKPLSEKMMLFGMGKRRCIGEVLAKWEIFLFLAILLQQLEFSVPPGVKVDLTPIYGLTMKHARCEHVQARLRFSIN

Cytochrome P450 2C8 = biological target: T2, Cytochrome P450 2C8 (Homo sapiens, UniProt P10632); experiment: Inhibition of CYP2C8 in human liver microsomes incubated for 10 mins by LC-MS/MS analysis; format: ADME, Microsome
T2 sequence (P10632 whole entry): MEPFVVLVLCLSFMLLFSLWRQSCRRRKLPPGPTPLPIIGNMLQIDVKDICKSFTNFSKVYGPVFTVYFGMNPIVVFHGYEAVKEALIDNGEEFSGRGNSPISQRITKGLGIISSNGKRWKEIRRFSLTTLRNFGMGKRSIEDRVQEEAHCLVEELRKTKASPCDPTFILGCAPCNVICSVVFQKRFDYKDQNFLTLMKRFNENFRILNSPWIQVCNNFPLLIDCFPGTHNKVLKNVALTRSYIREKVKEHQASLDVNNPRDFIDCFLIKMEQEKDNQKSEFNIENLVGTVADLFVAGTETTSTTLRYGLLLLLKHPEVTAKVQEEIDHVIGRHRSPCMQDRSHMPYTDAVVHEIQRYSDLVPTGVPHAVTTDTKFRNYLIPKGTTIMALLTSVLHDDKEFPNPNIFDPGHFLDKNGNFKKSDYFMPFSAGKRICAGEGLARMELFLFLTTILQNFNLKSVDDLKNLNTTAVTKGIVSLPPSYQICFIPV

[11] = biological target: Glutamate receptor ionotropic, NMDA 2B (Rattus norvegicus, UniProt Q00960); experiment: Displacement of 3-(3H) 1-(azetidin-1-yl)-2-(6- (4-fluoro-3-methyl-phenyl)pyrrolo-[…] pyridin-1yl)ethanone from GluN2B receptor in rat cortical membrane assessed as inhibition constant incubated for 2 hrs under shaking condition by liquid scintillator counter analysis; format: cell membranes, Cortex
[12] = biological target: Glutamate receptor ionotropic, NMDA 2C (Homo sapiens, UniProt Q05586+Q14957); experiment: Inhibition of human GluN2C receptor by FLIPR assay
Cytochrome P450 2C9 = Cytochrome P450 2C9 (Homo sapiens, UniProt P11712); experiment: Inhibition of CYP2C9 in human liver microsomes incubated for 10 mins by LC-MS/MS analysis; format: ADME, Microsome
[13] = Drug concentration in Sprague-Dawley rat brain at 10 mg/kg, po measured after 2 hrs; format: ADME, organism-based; conditions: read-out: Ct
Brain [14] = experiment: Ex vivo receptor occupancy at GluN2B receptor in Sprague-Dawley rat brain at 10 mg/kg, po measured after 2 hrs by 3 [3H] 1-(azetidin- 1-yl-2[6-(4-fluoro-3-methyl-pheny)pyrrolo[3,2-b]pyridin-1-yl]ethanon based autoradiography relative to control; format: functional
Cytochrome P450 2C19 = Cytochrome P450 2C19 (Homo sapiens, UniProt P33261); experiment: Inhibition of CYP2C19 in human liver microsomes incubated for 10 mins by LC-MS/MS analysis; format: ADME, Microsome
[15] = Drug concentration in Sprague-Dawley rat plasma at 10 mg/kg, po measured after 0.5 hrs; format: ADME, organism-based
[16] = Volume of distribution at steady state in Sprague-Dawley rat at 5 mg/kg, po or 1 mg/kg, iv measured for 24 hrs by LC-MS/MS analysis; format: ADME, organism-based; conditions: in vivo
[17] = Unbound brain to plasma concentration ratio in Sprague-Dawley rat at 10 mg/kg, po measured after 0.5 hrs; format: ADME, organism-based; conditions: brain and plasma, read-out: K(p,uu,brain)
Hippocampus [18] = experiment: Ex vivo receptor occupancy at GluN2B receptor in Sprague-Dawley rat brain hippocampus at 0.01 to 3 mg/kg, po measured after 2 hrs by 3 [3H] 1-(azetidin- 1-yl-2[6-(4-fluoro-3-methyl-pheny)pyrrolo[3,2-b]pyridin-1-yl]ethanon based autoradiography relative to control; format: functional; conditions: dose 0.01-3 mg/kg
[19] = Drug metabolism in rat liver microsomes at 0.014 to 0.37 uM incubated for 60 mins; format: ADME, Microsome; conditions: 1 h, dose 0.014-0.37 µM
Brain [20] = experiment: Ex vivo receptor occupancy at GluN2B receptor in Sprague-Dawley rat brain at 10 mg/kg, po measured after 0.25 hrs by 3 [3H] 1-(azetidin- 1-yl-2[6-(4-fluoro-3-methyl-pheny)pyrrolo[3,2-b]pyridin-1-yl]ethanon based autoradiography relative to control; format: functional
[21] = Drug metabolism in human liver microsomes assessed as O-dearylation mediated 1-(4-chloro-3-(difluoromethoxy)phenyl)-1H-1,2,3-triazole-4-carboxylic acid metabolite formation at 0.1 uM in presence of NADPH; format: ADME, Microsome
[22] = Plasma protein binding in Sprague-Dawley rat assessed as free fraction; format: ADME, cell-free
[23] = biological target: Glutamate receptor ionotropic, NMDA 2A (Homo sapiens, UniProt Q05586+Q12879); experiment: Inhibition of human GluN2A receptor by FLIPR assay
[24] = Drug concentration in Sprague-Dawley rat plasma at 10 mg/kg, po measured after 0.25 hrs; format: ADME, organism-based
[25] = biological target: Glutamate NMDA receptor; GRIN1/GRIN2B (Homo sapiens, UniProt Q05586+Q13224); experiment: Negative allosteric modulation of human GluN1A/GluN2B receptor expressed in T-REX-CHO cells preincubated for 5 mins followed by glutamate and glycine addition and measured after 5 mins by FLIPR assay; format: cell-based
[26] = Drug concentration in Sprague-Dawley rat brain at 10 mg/kg, po measured after 0.25 hrs; format: ADME, organism-based; conditions: read-out: Ct
[27] = Drug metabolism in rat hepatocytes at 0.01 to 0.1 uM incubated for 4 hrs; format: ADME, cell-based, Hepatocyte; conditions: dose 0.01-0.1 µM
[28] = Drug metabolism in human liver microsomes assessed as O-dearylation mediated (1-(4-chloro-3-(difluoromethoxy)phenyl)-1H-1,2,3-triazol-4-yl)methanol metabolite formation at 0.1 uM in presence of NADPH; format: ADME, Microsome
[29] = Thermodynamic solubility in aqueous phosphate buffer at pH 7; format: physicochemical; conditions: read-out: Therm_solubility
Hippocampus [30] = experiment: Ex vivo receptor occupancy at GluN2B receptor in Sprague-Dawley rat hippocampus administered orally and measured after 0.5 hrs by 3-[3H] 1-(azetidin- 1-yl-2[6-(4-fluoro-3-methyl-pheny)pyrrolo[3,2-b]pyridin-1-yl]ethanon based autoradiography; format: functional; conditions: route po
[31] = Metabolic stability in human liver microsomes assessed as extraction ratio; format: ADME, Microsome; conditions: read-out: ERH
[32] = Metabolic stability in rat liver microsomes assessed as extraction ratio; format: ADME, Microsome; conditions: read-out: ERH
Brain [33] = experiment: Ex vivo receptor occupancy at GluN2B receptor in Sprague-Dawley rat brain at 10 mg/kg, po measured after 6 hrs by 3 [3H] 1-(azetidin- 1-yl-2[6-(4-fluoro-3-methyl-pheny)pyrrolo[3,2-b]pyridin-1-yl]ethanon based autoradiography relative to control; format: functional
[34] = Thermodynamic solubility in aqueous phosphate buffer at pH 2; format: physicochemical; conditions: read-out: Therm_solubility
Cytochrome P450 3A4 = Cytochrome P450 3A4 (Homo sapiens, UniProt P08684); experiment: Inhibition of CYP3A4 in human liver microsomes incubated for 10 mins by LC-MS/MS analysis; format: ADME, Microsome
[35] = Drug concentration in Sprague-Dawley rat plasma at 10 mg/kg, po measured after 6 hrs; format: ADME, organism-based

Sequence of Cytochrome P450 2C19 (P33261 whole entry): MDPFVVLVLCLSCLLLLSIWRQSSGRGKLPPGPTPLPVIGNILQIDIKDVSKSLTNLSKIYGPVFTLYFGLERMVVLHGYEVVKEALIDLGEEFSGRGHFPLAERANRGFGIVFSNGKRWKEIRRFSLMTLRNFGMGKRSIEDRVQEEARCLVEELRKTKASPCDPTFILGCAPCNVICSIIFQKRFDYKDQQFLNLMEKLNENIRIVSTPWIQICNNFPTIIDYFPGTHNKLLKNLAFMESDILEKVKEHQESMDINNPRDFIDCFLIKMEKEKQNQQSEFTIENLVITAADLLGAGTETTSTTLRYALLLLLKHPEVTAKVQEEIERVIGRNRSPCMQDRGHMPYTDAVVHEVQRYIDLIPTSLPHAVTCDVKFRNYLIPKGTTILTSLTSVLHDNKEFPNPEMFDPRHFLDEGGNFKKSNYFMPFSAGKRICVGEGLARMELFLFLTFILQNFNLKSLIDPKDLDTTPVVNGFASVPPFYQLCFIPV
Sequence of Glutamate receptor ionotropic, NMDA 2A (Q12879 whole entry, one chain of several): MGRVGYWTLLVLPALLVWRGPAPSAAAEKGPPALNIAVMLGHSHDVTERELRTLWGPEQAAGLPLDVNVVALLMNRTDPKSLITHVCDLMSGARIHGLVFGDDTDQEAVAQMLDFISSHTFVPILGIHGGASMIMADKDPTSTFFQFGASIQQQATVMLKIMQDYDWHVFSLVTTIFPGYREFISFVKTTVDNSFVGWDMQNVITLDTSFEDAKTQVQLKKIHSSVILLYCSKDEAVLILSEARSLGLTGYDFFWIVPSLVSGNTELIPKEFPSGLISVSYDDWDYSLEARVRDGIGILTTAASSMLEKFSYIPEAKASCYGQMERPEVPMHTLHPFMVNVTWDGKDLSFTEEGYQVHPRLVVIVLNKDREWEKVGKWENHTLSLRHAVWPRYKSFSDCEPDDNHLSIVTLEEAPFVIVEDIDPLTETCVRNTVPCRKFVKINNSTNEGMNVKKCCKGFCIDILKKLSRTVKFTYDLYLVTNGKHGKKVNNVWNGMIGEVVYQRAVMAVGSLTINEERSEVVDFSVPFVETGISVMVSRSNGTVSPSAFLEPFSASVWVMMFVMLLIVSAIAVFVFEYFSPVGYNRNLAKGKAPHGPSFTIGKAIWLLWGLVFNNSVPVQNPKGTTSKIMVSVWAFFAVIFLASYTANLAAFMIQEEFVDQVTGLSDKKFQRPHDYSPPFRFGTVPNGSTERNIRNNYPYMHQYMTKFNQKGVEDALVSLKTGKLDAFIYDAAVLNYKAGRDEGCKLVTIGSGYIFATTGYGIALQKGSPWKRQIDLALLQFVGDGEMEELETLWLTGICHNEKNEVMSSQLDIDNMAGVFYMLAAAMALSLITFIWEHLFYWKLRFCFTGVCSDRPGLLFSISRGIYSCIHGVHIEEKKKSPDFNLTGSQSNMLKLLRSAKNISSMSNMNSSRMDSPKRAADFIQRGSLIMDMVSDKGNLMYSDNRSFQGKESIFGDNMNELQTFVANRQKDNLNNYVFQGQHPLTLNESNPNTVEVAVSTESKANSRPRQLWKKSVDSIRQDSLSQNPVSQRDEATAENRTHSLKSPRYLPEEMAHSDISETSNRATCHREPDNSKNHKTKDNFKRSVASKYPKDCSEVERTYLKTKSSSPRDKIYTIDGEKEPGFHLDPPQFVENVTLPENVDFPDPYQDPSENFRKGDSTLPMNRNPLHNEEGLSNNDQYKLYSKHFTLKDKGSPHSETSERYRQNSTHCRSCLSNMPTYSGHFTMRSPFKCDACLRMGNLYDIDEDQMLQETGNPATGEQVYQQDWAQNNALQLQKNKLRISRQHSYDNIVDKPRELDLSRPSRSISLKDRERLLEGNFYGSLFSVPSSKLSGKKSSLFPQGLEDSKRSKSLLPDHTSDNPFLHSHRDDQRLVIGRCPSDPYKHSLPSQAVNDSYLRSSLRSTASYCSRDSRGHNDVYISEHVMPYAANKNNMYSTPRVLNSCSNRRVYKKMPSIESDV
Sequence of Glutamate receptor ionotropic, NMDA 2D (O15399 whole entry, one chain of several): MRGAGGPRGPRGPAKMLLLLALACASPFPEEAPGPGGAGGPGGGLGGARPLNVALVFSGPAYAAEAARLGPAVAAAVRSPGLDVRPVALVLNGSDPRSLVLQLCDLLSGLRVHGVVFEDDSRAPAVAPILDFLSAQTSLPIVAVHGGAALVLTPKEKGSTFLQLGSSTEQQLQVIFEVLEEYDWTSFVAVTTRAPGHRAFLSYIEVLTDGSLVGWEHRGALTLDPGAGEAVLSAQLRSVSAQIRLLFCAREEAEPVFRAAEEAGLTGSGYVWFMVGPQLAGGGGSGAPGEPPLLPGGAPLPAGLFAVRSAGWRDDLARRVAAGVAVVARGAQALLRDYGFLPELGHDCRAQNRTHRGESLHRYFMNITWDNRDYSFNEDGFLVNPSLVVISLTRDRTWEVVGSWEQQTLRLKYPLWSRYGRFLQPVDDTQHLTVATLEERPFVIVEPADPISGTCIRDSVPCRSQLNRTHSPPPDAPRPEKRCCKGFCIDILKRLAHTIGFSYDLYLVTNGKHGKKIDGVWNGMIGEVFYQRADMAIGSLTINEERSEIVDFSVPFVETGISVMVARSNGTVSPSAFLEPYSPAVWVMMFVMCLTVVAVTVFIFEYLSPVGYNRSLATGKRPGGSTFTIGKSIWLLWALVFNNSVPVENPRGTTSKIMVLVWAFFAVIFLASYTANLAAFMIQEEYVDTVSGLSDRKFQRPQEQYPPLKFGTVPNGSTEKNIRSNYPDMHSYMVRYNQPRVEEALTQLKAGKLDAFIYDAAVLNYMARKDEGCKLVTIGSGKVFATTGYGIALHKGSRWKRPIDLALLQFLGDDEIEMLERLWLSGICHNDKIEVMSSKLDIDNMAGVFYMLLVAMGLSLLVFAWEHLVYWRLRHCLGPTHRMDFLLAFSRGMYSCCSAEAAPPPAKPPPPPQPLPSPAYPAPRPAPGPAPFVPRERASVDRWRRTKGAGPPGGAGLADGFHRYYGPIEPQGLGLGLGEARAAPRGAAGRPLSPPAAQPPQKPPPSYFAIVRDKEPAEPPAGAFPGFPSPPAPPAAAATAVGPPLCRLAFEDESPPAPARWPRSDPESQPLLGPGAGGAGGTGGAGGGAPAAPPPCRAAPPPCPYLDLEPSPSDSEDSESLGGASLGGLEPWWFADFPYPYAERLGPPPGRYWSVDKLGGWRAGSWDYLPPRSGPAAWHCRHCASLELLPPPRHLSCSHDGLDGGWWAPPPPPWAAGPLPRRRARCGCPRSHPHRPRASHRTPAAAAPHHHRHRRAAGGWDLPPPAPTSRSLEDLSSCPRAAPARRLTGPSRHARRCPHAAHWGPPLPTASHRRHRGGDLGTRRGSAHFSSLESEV
Sequence of Voltage-gated inwardly rectifying potassium channel KCNH2 (Q12809 whole entry): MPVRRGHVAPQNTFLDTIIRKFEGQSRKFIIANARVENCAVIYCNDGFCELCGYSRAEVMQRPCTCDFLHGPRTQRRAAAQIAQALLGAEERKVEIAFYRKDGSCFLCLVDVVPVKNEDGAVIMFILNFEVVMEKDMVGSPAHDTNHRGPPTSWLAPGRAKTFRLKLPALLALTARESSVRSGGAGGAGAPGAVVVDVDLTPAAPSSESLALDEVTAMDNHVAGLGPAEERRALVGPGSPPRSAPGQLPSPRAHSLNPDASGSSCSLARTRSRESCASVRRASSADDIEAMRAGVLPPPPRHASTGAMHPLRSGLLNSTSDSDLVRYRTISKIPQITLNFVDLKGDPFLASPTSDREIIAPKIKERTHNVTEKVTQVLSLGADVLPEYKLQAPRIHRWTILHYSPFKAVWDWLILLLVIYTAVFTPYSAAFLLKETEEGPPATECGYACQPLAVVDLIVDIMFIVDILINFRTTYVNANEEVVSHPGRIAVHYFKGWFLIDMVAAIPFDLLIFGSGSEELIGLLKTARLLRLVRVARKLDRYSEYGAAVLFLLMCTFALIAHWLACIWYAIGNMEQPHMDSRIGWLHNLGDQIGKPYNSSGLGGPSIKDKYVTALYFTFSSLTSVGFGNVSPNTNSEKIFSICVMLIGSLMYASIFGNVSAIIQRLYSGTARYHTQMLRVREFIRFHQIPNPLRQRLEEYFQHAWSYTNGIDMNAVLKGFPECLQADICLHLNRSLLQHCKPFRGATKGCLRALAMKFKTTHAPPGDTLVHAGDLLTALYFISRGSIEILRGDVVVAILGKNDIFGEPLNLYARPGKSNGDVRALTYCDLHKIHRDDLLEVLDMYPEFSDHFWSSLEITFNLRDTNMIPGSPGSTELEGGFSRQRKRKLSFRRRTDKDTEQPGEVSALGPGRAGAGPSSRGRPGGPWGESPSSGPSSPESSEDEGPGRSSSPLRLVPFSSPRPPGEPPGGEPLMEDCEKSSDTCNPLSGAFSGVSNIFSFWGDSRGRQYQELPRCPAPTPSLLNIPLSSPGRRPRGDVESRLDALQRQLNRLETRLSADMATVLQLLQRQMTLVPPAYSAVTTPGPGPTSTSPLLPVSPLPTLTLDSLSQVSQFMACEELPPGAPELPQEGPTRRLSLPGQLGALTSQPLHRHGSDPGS
Sequence of Cytochrome P450 2D6 (P10635 whole entry): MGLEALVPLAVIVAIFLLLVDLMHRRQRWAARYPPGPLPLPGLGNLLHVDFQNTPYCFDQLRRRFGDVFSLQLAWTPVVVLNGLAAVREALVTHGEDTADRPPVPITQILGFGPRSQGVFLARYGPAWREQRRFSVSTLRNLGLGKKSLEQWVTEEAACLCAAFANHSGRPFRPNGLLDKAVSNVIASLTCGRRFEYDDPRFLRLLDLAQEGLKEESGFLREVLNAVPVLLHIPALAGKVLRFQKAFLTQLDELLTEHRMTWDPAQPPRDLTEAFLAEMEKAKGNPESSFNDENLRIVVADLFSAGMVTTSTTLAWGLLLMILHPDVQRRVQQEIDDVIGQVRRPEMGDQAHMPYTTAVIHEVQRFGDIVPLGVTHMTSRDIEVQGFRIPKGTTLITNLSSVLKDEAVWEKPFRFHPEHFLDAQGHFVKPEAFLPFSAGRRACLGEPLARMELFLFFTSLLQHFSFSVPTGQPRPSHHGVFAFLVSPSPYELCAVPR

Compound | Occ (Brain [1]) [%] | fraction unbound [2] | concentration at 2 h [3] [ng/mL] | efflux ratio at 1 h, 5 µM (MDR1 (P-gp)) | bioavailability [5] [%] | IC50 [6] [µM] | Cmax [7] [ng/mL] | Kp uu at 2 h [8] | IC50 (Cytochrome P450 2D6) [µM] | concentration at 0.5 h [9] [ng/g] | IC50 [10] [µM] | IC50 (Cytochrome P450 1A2) [µM] | IC50 (Cytochrome P450 2C8) [µM] | Ki [11] [µM] | IC50 [12] [µM] | IC50 (Cytochrome P450 2C9) [µM] | concentration at 2 h [13] [ng/g] | Occ (Brain [14]) [%] | IC50 (Cytochrome P450 2C19) [µM] | concentration at 0.5 h [15] [ng/mL] | also measured
FC(F)Oc1cc(-n2cc(COc3ncccn3)nn2)ccc1Cl | 92 | 0.051 | 8650 | 1 | 78 | > 10 | 808 | 0.72 | > 10 | 1920 | > 10 | > 10 | > 10 | 0.094 | > 10 | > 10 | 3010 | 85 | > 10 | 5120 | Kp uu at 0.25 h [4]: 0.91; Vdss [16]: 0.51 L/kg; Kp uu at 0.5 h [17]: 0.78; Occ (Hippocampus [18]): <10%; Drug metabolism [19]: Metabolite_Detected; Occ (Brain [20]): 71%; Drug metabolism [21]: Metabolite_Detected; fraction unbound [22]: 0.024; IC50 [23]: > 10 µM; concentration at 0.25 h [24]: 3040 ng/mL; IC50 [25]: 0.011 µM; concentration at 0.25 h [26]: 1290 ng/g; Drug metabolism [27]: Metabolite_Detected; Drug metabolism [28]: Metabolite_Detected
COCc1ccnc(OCc2cn(-c3ccc(F)c(OC(F)F)c3)nn2)n1 | 77 | 0.0882 | 235 | 1.1 | 42 | > 10 | 1630 | 0.76 | > 10 | 340 | > 10 | > 10 | > 10 | 0.032 | > 10 | > 10 | 47 | 54 | > 10 | 1980 | solubility thermodynamic [29]: 260 µM (≈ 99.1 µg/mL); ED50 (Hippocampus [30]): 1.7 mg/kg; hepatic extraction ratio [31]: 0.47; hepatic extraction ratio [32]: 0.6; Occ (Brain [33]): 8%; solubility thermodynamic [34]: 280 µM (≈ 107 µg/mL); IC50 (Cytochrome P450 3A4): > 10 µM; Vdss [16]: 0.4 L/kg; Kp uu at 0.5 h [17]: 0.65; fraction unbound [22]: 0.0236; IC50 [23]: > 10 µM; concentration at 6 h [35]: 6.7 ng/mL
